SMILES strings stand for the structures.

The assay addresses human OX2R (Homo sapiens (Human), UniProt O43614). Kind of assay: IPOne (IP-1) assay in CHO cells expressing human OX2R. It is filed as cell-based. The following applies: for IC50: CHO cells expressing human OX2R, IP-One detection, 2 hours incubation, EC50 = inflection point of four parameter logistic fit, read-out: hOX2R_IP_IC50; for Emax: CHO, read-out: Emax (%). The procedure, abridged: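 CHO cells stably expressing human OX2R were stimulated with compound (10-point ½-log dilutions) for 2 h at 37 °C. IP-1 accumulation was read by HTRF (IP-One, 665/620 nm). EC50 from a four-parameter fit; % effect relative to 1 μM reference agonist control.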

[1] abbreviates: percentage of mean max effect of a reference compound at 1 uM (100% activity by comparison to Orexin A), human OX2R.

human OX2R, sequence (O43614 whole entry): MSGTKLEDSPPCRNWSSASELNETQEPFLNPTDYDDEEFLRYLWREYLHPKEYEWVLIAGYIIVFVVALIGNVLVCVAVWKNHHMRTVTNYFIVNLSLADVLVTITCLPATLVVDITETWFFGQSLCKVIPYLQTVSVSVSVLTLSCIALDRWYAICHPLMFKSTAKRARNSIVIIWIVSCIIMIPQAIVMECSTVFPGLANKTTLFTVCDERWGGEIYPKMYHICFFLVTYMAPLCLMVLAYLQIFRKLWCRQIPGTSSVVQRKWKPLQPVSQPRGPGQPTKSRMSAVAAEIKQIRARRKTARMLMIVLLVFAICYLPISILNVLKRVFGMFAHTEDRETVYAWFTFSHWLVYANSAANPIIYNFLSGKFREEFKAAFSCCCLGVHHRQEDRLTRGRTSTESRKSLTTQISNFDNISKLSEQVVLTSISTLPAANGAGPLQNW

Regarding `COC(=O)N1[C@H](C)C[C@H](NS(=O)(=O)CF)[C@@H]1CO[C@H]1CC[C@@]2(c3ncc(Cl)c(OC)n3)C[C@H]2C1` (single isomer, unassigned) [Example 84], the IC50 came out at 4.6 nM. Also, the Emax under setting [1] worked out at 101%.
Turning to `COC(=O)N1CC[C@H](NS(C)(=O)=O)[C@@H]1CO[C@H]1CC[C@@]2(c3ncccn3)C[C@H]2C1` (single isomer, unassigned) [Example 24], the IC50 was found to be 238 nM. For the same compound, the “Emax (%)” value under setting [1] is 99.8%.
For `CC(C)OC(=O)N1[C@H](C)C[C@H](NS(=O)(=O)CF)[C@@H]1COC1CCC2(c3ncc(F)cn3)CC2C1` (stereo partly drawn) [Example 111, isopropyl (2R,3S,5R)-3-((fluoromethyl)sulfonamido)-2-(((6-(5-fluoropyrimidin-2-yl)bicyclo[4.1.0]heptan-3-yl)oxy)methyl)-5-methylpyrrolidine-1-carboxylate], the Emax under setting [1] is 98.5%.
For the compound `COC(=O)N1[C@H](C)C[C@H](NS(C)(=O)=O)[C@@H]1CO[C@@H]1CC[C@]2(c3ncc(C)cn3)C[C@@H]2C1` (single isomer, unassigned) [Example 155], the IC50 was determined as 717 nM. Further, the Emax under setting [1] came out at 54.3%.
The corresponding values for `COC(=O)N1[C@H](C)C[C@H](NS(C)(=O)=O)[C@@H]1CO[C@H]1CC[C@@]2(c3ncccn3)C[C@H]2C1` (single isomer, unassigned) [Example 181] are 4.5 nM and 101%.
As for `COC(=O)N1[C@H](C)C[C@H](NS(=O)(=O)C(F)(F)F)[C@@H]1CO[C@H]1CC[C@@]2(c3ncc(F)cn3)C[C@H]2C1` [Example 31, methyl (2R,3S,5R)-2-((((1S,3S,6R)-6-(5-fluoropyrimidin-2-yl)bicyclo[4.1.0]heptan-3-yl)oxy)methyl)-5-methyl-3-((trifluoromethyl)sulfonamido)pyrrolidine-1-carboxylate], the maximum response (Emax) under setting [1] is 101%.
For `COC(=O)N1[C@H](C)C[C@H](NS(=O)(=O)N(C)C)[C@@H]1COC1CCC2(c3ncccn3)CC2C1` (stereo partly drawn) [Example 6, methyl (2R,3S,5R)-3-((N,N-dimethylsulfamoyl)amino)-5-methyl-2-(((6-(pyrimidin-2-yl)bicyclo[4.1.0]heptan-3-yl)oxy)methyl)pyrrolidine-1-carboxylate], the Emax under setting [1] was 101%.
Still for that read-out and setting: next, `COC(=O)N1[C@H](C)C[C@H](NS(=O)(=O)N2CCC2)[C@@H]1CO[C@H]1CC[C@@]2(c3ncc(F)cn3)C[C@H]2C1` [Example 39, methyl (2R,3S,5R)-3-(azetidine-1-sulfonamido)-2-((((1S,3S,6R)-6-(5-fluoropyrimidin-2-yl)bicyclo[4.1.0]heptan-3-yl)oxy)methyl)-5-methylpyrrolidine-1-carboxylate]: 103%.
Same read-out and setting: next, `COC(=O)N1[C@H](C(F)F)C[C@H](NS(=O)(=O)C2CC2)[C@@H]1COC1CCC2(c3ncc(F)cn3)CC2C1` (stereo partly drawn) [Example 116, methyl (2R,3S,5S)-3-(cyclopropanesulfonamido)-5-(difluoromethyl)-2-(((6-(5-fluoropyrimidin-2-yl)bicyclo[4.1.0]heptan-3-yl)oxy)methyl)pyrrolidine-1-carboxylate]: 102%; `C[C@@H]1C[C@H](NS(C)(=O)=O)[C@H](CO[C@H]2CC[C@@]3(c4ncc(F)cn4)C[C@H]3C2)N1C(=O)OCC1(F)CCC1` [Example 53, (1-fluorocyclobutyl)methyl (2R,3S,5R)-2-((((1S,3S,6R)-6-(5-fluoropyrimidin-2-yl)bicyclo[4.1.0]heptan-3-yl)oxy)methyl)-5-methyl-3-(methylsulfonamido)pyrrolidine-1-carboxylate]: 104%.
For `COC(=O)N1[C@H](C)C[C@H](NS(=O)(=O)N(C)C)[C@@H]1COC1CCC2(c3ccc(C#N)cc3)CC2C1` (stereo partly drawn) [Example 5, methyl (2R,3S,5R)-2-(((6-(4-cyanophenyl)bicyclo[4.1.0]heptan-3-yl)oxy)methyl)-3-((N,N-dimethylsulfamoyl)amino)-5-methylpyrrolidine-1-carboxylate], the Emax under setting [1] is 99.8%.
Turning to `CCS(=O)(=O)N[C@H]1[C@H]2CCC[C@H]2N(C(=O)OC)[C@H]1COC1CCC2(c3ncc(F)cn3)CC2C1` (stereo partly drawn) [Example 129, methyl (2R,3S,3aS,6aR)-3-(ethylsulfonamido)-2-(((6-(5-fluoropyrimidin-2-yl)bicyclo[4.1.0]heptan-3-yl)oxy)methyl)hexahydrocyclopenta[b]pyrrole-1(2H)-carboxylate], under setting [1], the Emax was found to be 101%.

Source of the values: patent US11680060B2, “Bicycloheptane pyrrolidine orexin receptor agonists” (Merck Sharp & Dohme LLC, priority 2020, dated 2023).
